These are literature values, as cited in publication PMC4962924 (Chemistry (Weinheim an der Bergstrasse, Germany), 2016).

SMILES strings stand for the structures.

The test system of the data set is Hsp90. The following applies: natural product C-terminal inhibitors; ref [25],[26].

Broadly, the IC50 is the concentration that gives 50% inhibition. Take `CO[C@H]1[C@H](OC(=O)c2ccc(C)[nH]2)[C@H](O)[C@@H](Oc2ccc3c(O)c(NC(=O)c4c[nH]c(C(=O)Nc5c(O)c6ccc(O[C@H]7OC(C)(C)[C@@H](OC)[C@H](OC(=O)c8ccc(C)[nH]8)[C@@H]7O)c(C)c6oc5=O)c4C)c(=O)oc3c2C)OC1(C)C` [coumermycin A1]: the IC50 is 70 µM.

Turning to `CO[C@@H]1[C@@H](OC(N)=O)[C@@H](O)[C@H](Oc2ccc3c(O)c(NC(=O)c4ccc(O)c(CC=C(C)C)c4)c(=O)oc3c2C)OC1(C)C` [novobiocin], the IC50 was […].
